Experimental data taken from EP0032314A1, “Aroylpyrrole derivatives, processes for their preparation and their use” (BEECHAM GROUP PLC, priority 1980, dated 1981).

Assays:
[1] = system: phenylquinone induced mouse writhing; assay: phenylquinone induced mouse writhing test (analgesic activity); assay type: in vivo; conditions: po
Experimental: Analgesic activity was determined using a conventional phenylquinone induced mouse writhing test.

[2] = system: test animals; conditions: in vivo
[3] = reported in J. Pharmacol, Exptl. Therap. 1973, 185, 127-138; cited from earlier work

Row | SMILES | ED50 [1] [mg/kg] | gastric irritancy [2] | anti-inflammatory activity [3]
1 | CC(=O)CCc1cc(C)c(C(=O)c2ccc(Cl)cc2)n1C [Example 1, 4-(1,4-dimethyl-p-chlorobenzoyl-2-pyrryl)butan-2-one] | 6.1 | – | –
2 | Cc1ccc(C(=O)c2ccc(CC(=O)O)n2C)cc1 [Tolmetin] | – | causes gastric irritancy | possess anti-inflammatory activity
